ChEMBL document CHEMBL1201862, “PubChem BioAssay data set” (2004)
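Test compounds were applied to cells in 96-well plates for 48 hours at 5 doses. Abbreviation: GI50, concentration required for 50% inhibition of growth.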 The source made the active and inactive calls. Cut-off read from the data, not from the text of the source: active = GI50 up to about 1.1 µM and inactive = higher.

Tests used:
Test in all cases: inhibition of tumour cell growth, NCI panel, 48 h
[1] = system: 786-0
[2] = system: A498
[3] = system: A549
[4] = system: ACHN
[5] = system: BT-549
[6] = system: CAKI-1
[7] = system: CCRF-CEM
[8] = system: COLO 205
[9] = system: DU-145
[10] = system: EKVX
[11] = system: HCC 2998
[12] = system: HCT-116
[13] = system: HCT-15
[14] = system: HL-60
[15] = system: HOP-62
[16] = system: HOP-92
[17] = system: HT-29
[18] = system: Hs-578T
[19] = system: IGROV-1
[20] = system: K562
[21] = system: KM12
[22] = system: LOX IMVI
[23] = system: M14
[24] = system: MCF7
[25] = system: MDA-MB-231
[26] = system: MDA-MB-435
[27] = system: MDA-N
[28] = system: MOLT-4
[29] = system: Malme-3M
[30] = system: NCI-H23
[31] = system: NCI-H460
[32] = system: NCI-H522
[33] = system: NCI/ADR-RES
[34] = system: OVCAR-3
[35] = system: OVCAR-4
[36] = system: OVCAR-5
[37] = system: OVCAR-8
[38] = system: PC-3
[39] = system: RPMI-8226
[40] = system: RXF 393
[41] = system: SF-268
[42] = system: SF-295
[43] = system: SF-539
[44] = system: SK-MEL-28
[45] = system: SK-MEL-2
[46] = system: SK-MEL-5
[47] = system: SK-OV-3
[48] = system: SN12C
[49] = system: SNB-19
[50] = system: SNB-75
[51] = system: SW-620
[52] = system: T47D
[53] = system: TK-10
[54] = system: U-251
[55] = system: UACC-257
[56] = system: UACC-62
[57] = system: UO-31
[58] = system: NCI-H226
[59] = system: SR

Measured: GI50

CN(CCCNC(=O)c1nn(-c2ccc(Cl)cc2Cl)c2c1Cc1ccccc1-2)CCCNC(=O)c1nn(-c2ccc(Cl)cc2Cl)c2c1Cc1ccccc1-2
active: [7] 993 nM | [20] 944 nM | [35] 285 nM
inactive: [1] 1670 nM | [2] 1710 nM | [3] 1770 nM | [4] 1670 nM | [5] 2030 nM | [6] 1550 nM | [8] 1830 nM | [9] 1770 nM | [10] 1660 nM | [11] 1640 nM | [12] 1700 nM | [14] 1490 nM | [15] 1720 nM | [16] 1610 nM | [17] 1730 nM | [18] 2740 nM | [19] 1760 nM | [21] 2370 nM | [22] 1670 nM | [23] 1800 nM | [24] 1550 nM | [25] 1870 nM | [26] 1480 nM | [27] 1700 nM | [28] 1320 nM | [29] 1780 nM | [30] 2000 nM | [31] 1650 nM | [32] 1430 nM | [33] 1870 nM | [34] 1730 nM | [36] 1570 nM | [37] 1810 nM | [38] 1730 nM | [39] 1210 nM | [40] 1770 nM | [41] 1960 nM | [42] 1720 nM | [43] 1190 nM | [44] 1690 nM | [45] 1920 nM | [46] 1680 nM | [47] 1780 nM | [48] 1670 nM | [49] 1770 nM | [50] 1550 nM | [51] 1480 nM | [52] 1920 nM | [53] 1730 nM | [54] 1790 nM | [55] 1810 nM | [56] 1570 nM | [57] 1820 nM
1840 nM: [13]

CC(CC(N)C(=O)O)C(=O)O (centres undefined)
> 100000 nM: [13]
inactive: [1] > 100000 nM | [2] > 100000 nM | [3] > 100000 nM | [4] > 100000 nM | [5] > 100000 nM | [6] > 100000 nM | [7] > 100000 nM | [9] > 100000 nM | [10] > 100000 nM | [12] > 100000 nM | [14] > 100000 nM | [15] > 100000 nM | [16] > 100000 nM | [17] > 100000 nM | [18] > 100000 nM | [19] > 100000 nM | [20] > 100000 nM | [21] > 100000 nM | [22] > 100000 nM | [23] > 100000 nM | [25] > 100000 nM | [26] > 100000 nM | [27] > 100000 nM | [28] > 100000 nM | [29] > 100000 nM | [58] > 100000 nM | [30] > 100000 nM | [31] > 100000 nM | [32] > 100000 nM | [33] > 100000 nM | [34] > 100000 nM | [35] > 100000 nM | [36] > 100000 nM | [37] > 100000 nM | [38] > 100000 nM | [40] > 100000 nM | [41] > 100000 nM | [42] > 100000 nM | [44] > 100000 nM | [45] > 100000 nM | [46] > 100000 nM | [48] > 100000 nM | [49] > 100000 nM | [59] > 100000 nM | [51] > 100000 nM | [52] > 100000 nM | [53] > 100000 nM | [54] > 100000 nM | [55] > 100000 nM | [56] > 100000 nM | [57] > 100000 nM
